Assay results reported in article PMC10590756, “Glutarate regulates T cell metabolism and anti-tumour immunity” (Nature Metabolism, 2023).

Key:
[1] = biological target: T1, human full-length HIF-P4H-1 (Homo sapiens, UniProt Q96KS0); experiment: Cell-free HIF-P4H-1 activity assay (^14CO2 release); type: biochemical
T1 construct: The human full-length HIF-P4H-1 and KDM6A enzymes were recombinantly produced using Sf21 insect cells; made in house; host or cells: Sf21 insect cells (baculovirus)
Text: (§1) The human full-length HIF-P4H-1 and KDM6A enzymes were recombinantly produced using Sf21 insect cells and the enzymes were purified with anti-FLAG M2 affinity gel as described previously[68],[69]. Briefly, the C terminus FLAG-tagged human HIF-P4H1-2 and KDM6A were generated using PCR and subcloned into pAcG3X and pVL1393 baculovirus expression vectors, respectively. The recombinant baculoviruses were generated by transducing the bacmid DNA into Spodoptera frugiperda Sf9 cells using BaculoGold DNA (HIF-P4H1-2, BD Biosciences) and BacMagic-3 DNA kit (for KDM6A, Novagen). Recombinant proteins were produced by infecting Sf21 insect cells with the corresponding amplified baculoviruses for 72 h at 27 °C. Cells were homogenized in a buffer containing 10 mM Tris, 150 mM NaCl, 100 mM glycine, 0.1% (v/v) Triton X-100, pH 7.8, and a protease inhibitor cocktail tablet without EDTA. The cell lysates were centrifuged at 21,000g for 30 min; the soluble fractions containing the FLAG-tagged proteins were affinity-purified using the anti-FLAG M2 affinity gel (Sigma-Aldrich). […] Protein concentration was measured with NanoDrop and proteins were analysed by SDS–PAGE followed by Coomassie brilliant blue staining. […] The IC50 value of the glutarate analogue was calculated from the inhibition saturation curves.

human full-length KDM6A = biological target: T2, human full-length KDM6A (Homo sapiens, UniProt O15550); experiment: Cell-free KDM6A activity assay (^14CO2 release); type: biochemical
T2 construct: The human full-length HIF-P4H-1 and KDM6A enzymes were recombinantly produced using Sf21 insect cells; made in house; host or cells: Sf21 insect cells (baculovirus, pVL1393)
Text: as §1

CD8^+ T cells = experiment: Acetyl-CoA measurement; type: cell-based, human; details: 500 µM DEG, 30 min or 7 days
Procedure: Acetyl-CoA levels were determined using an acetyl-CoA assay kit (catalogue no. MAK039, Sigma-Aldrich). After culture, 2 × 10^6 cells per condition were collected, washed twice with ice-cold PBS and resuspended in 500 µl of the assay buffer. Following deproteinization by adding 2 µl 1M perchloric acid, samples were sonicated and the assay was performed according to the manufacturer’s instructions. Data were acquired on the FLUOstar Omega.

T1 sequence (Q96KS0 whole entry): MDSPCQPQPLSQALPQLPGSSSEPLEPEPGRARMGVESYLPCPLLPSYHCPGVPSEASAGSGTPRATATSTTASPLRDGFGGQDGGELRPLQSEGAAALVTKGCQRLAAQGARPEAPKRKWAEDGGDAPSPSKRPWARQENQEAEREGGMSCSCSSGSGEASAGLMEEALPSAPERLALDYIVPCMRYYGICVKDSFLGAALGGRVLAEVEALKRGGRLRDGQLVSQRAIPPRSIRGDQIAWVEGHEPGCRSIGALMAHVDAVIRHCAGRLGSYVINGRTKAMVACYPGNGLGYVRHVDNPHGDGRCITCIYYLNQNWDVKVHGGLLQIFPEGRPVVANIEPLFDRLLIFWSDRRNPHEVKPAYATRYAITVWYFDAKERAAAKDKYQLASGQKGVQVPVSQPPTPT
T2 sequence (O15550 whole entry): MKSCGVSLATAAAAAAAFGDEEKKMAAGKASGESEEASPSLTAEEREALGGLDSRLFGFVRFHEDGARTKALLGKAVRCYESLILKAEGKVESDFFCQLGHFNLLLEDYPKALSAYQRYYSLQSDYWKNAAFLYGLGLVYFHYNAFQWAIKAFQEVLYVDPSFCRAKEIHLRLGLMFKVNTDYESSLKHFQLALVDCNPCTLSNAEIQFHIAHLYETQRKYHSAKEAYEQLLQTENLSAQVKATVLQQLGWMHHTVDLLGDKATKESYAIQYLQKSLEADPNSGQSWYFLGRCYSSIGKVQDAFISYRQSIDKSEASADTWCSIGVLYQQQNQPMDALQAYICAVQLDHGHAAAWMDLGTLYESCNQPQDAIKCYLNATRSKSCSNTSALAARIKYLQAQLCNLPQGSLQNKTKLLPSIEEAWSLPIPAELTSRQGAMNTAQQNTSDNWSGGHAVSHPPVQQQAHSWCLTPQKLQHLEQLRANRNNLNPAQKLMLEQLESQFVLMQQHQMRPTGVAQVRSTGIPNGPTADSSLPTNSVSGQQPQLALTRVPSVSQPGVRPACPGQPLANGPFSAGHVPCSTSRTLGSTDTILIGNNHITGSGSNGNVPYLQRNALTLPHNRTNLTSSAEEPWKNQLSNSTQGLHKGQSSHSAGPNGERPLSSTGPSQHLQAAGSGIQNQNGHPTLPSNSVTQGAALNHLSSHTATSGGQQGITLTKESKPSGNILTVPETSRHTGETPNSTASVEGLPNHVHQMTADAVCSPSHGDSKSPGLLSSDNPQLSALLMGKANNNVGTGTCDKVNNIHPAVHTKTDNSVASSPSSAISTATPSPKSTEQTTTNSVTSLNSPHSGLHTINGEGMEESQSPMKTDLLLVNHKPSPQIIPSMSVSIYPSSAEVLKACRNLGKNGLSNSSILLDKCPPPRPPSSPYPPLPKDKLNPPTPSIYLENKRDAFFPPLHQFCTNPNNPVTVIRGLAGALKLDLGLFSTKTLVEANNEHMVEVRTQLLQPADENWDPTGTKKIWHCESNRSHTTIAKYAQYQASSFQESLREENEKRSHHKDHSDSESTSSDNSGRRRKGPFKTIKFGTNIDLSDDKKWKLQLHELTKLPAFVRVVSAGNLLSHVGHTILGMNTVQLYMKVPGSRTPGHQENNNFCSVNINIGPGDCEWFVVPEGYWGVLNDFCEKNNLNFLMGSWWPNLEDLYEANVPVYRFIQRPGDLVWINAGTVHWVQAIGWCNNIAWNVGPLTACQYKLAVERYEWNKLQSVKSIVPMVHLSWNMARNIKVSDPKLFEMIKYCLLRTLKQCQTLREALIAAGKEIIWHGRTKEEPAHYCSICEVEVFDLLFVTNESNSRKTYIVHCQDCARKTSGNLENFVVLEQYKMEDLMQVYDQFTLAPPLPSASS

**Q.** With `O=C(O)CCCC(=O)O` [glutarate, glutaric acid] as the compound, how does the IC50 [1] read?
**A.** 2000 µM

**Q.** What about the IC50 (human full-length KDM6A) of the same compound?
**A.** 600 µM

**Q.** With `CCOC(=O)CCCC(=O)OCC` [DEG, Diethyl glutarate] as the compound, how does the acetyl-CoA levels (CD8^+ T cells) read?
**A.** not lower
